Earlier results, collected in US11197842B2 (BIOGEN MA INC., priority 2014, dated 2021).
Structures can show the parent of a compound that is named as a salt.

Settings: species not stated

COC(=O)/C=C/C(=O)O [MMF, monomethyl fumarate]
half-life of MMF: approximately 1 hour
